From ChEMBL document CHEMBL6092203, “Discovery of Novel PROTAC-Based HPK1 Degraders with High Potency and Selectivity for Cancer Immunotherapy” (J Med Chem, 2024)

What was measured:
[1] = molecular target: Mitogen-activated protein kinase kinase kinase kinase 1 (Homo sapiens, UniProt Q92918); experiment: Induction of HPK1 (unknown origin) degradation
[2] = molecular target: Protein cereblon/Mitogen-activated protein kinase kinase kinase kinase 1 (Homo sapiens, UniProt Q92918+Q96SW2); experiment: PROTAC activity at CRBN/HPK1 in human Jurkat cells incubated for 24 hrs by Western blotting analysis; assay type: cell-based
[3] = tested on: MC-38; experiment: Antitumor activity against mouse MC38 cells implanted in C57BL/6J mouse assessed as reduction in tumor weight at 1 mg/kg, po BID administered for 3 to 4 weeks (reference value: 1.79 +/- 0.24 g); assay type: functional; conditions: time 3-4 weeks
[4] = tested on: MC-38; experiment: Synergistic antitumor activity against mouse MC38 cells implanted in C57BL/6J mouse assessed as tumor weight inhibition rate at 10 mg/kg, po bid measured after 4 weeks in presence of 5 mg/kg anti-PD1 and measured twice a week; assay type: functional; design: scale not given: the % may be the effect or the level left
[5] = tested on: MC-38; experiment: Synergistic antitumor activity against mouse MC38 cells implanted in C57BL/6J mouse assessed as reduction in tumor weight at 1 mg/kg, po bid administered for 3 to 4 weeks in presence of 5 mg/kg anti-PD1 and measured twice a week (reference value: 1.79 +/- 0.24 g); assay type: functional; conditions: time 3-4 weeks
[6] = tested on: MC-38; experiment: Antitumor activity against mouse MC38 cells implanted in C57BL/6J mouse assessed as reduction in tumor volume at 10 mg/kg, po BID administered for 3 to 4 weeks (reference value: 1549.22 +/- 217.92 mm3); assay type: functional; conditions: time 3-4 weeks
[7] = tested on: MC-38; experiment: Antitumor activity against mouse MC38 cells implanted in C57BL/6J mouse assessed as tumor weight inhibition rate at 1 mg/kg, po BID measured after 4 weeks; assay type: functional; design: scale not given: the % may be the effect or the level left
[8] = tested on: MC-38; experiment: Synergistic antitumor activity against mouse MC38 cells implanted in C57BL/6J mouse assessed as reduction in tumor volume at 10 mg/kg, po bid administered for 3 to 4 weeks in presence of 5 mg/kg anti-PD1 and measured twice a week (reference value: 1549.22 +/- 217.92 mm3); assay type: functional; conditions: time 3-4 weeks
[9] = tested on: MC-38; experiment: Antitumor activity against mouse MC38 cells implanted in C57BL/6J mouse assessed as reduction in tumor weight at 10 mg/kg, po BID administered for 3 to 4 weeks (reference value: 1.79 +/- 0.24 g); assay type: functional; conditions: time 3-4 weeks
[10] = tested on: MC-38; experiment: Synergistic antitumor activity against mouse MC38 cells implanted in C57BL/6J mouse assessed as reduction in tumor weight at 10 mg/kg, po bid administered for 3 to 4 weeks in presence of 5 mg/kg anti-PD1 and measured twice a week (reference value: 1.79 +/- 0.24 g); assay type: functional; conditions: time 3-4 weeks
[11] = tested on: MC-38; experiment: Antitumor activity against mouse MC38 cells implanted in C57BL/6J mouse assessed as tumor growth inhibition at 10 mg/kg, po BID measured after 4 weeks; assay type: functional; conditions: MC-38, 672 h, read-out: TGI
[12] = tested on: MC-38; experiment: Synergistic antitumor activity against mouse MC38 cells implanted in C57BL/6J mouse assessed as tumor growth inhibition at 1 mg/kg, po bid measured after 4 weeks in presence of 5 mg/kg anti-PD1 and measured twice a week; assay type: functional; conditions: MC-38, 672 h, read-out: TGI
[13] = tested on: MC-38; experiment: Synergistic antitumor activity against mouse MC38 cells implanted in C57BL/6J mouse assessed as tumor growth inhibition at 10 mg/kg, po bid measured after 4 weeks in presence of 5 mg/kg anti-PD1 and measured twice a week; assay type: functional; conditions: MC-38, 672 h, read-out: TGI
[14] = tested on: MC-38; experiment: Antitumor activity against mouse MC38 cells implanted in C57BL/6J mouse assessed as reduction in tumor volume at 1 mg/kg, po BID administered for 3 to 4 weeks (reference value: 1549.22 +/- 217.92 mm3); assay type: functional; conditions: time 3-4 weeks
[15] = tested on: MC-38; experiment: Antitumor activity against mouse MC38 cells implanted in C57BL/6J mouse assessed as tumor weight inhibition rate at 10 mg/kg, po BID measured after 4 weeks; assay type: functional; design: scale not given: the % may be the effect or the level left
[16] = tested on: MC-38; experiment: Antitumor activity against mouse MC38 cells implanted in C57BL/6J mouse assessed as tumor growth inhibition at 1 mg/kg, po BID measured after 4 weeks; assay type: functional; conditions: MC-38, 672 h, read-out: TGI
[17] = tested on: MC-38; experiment: Synergistic antitumor activity against mouse MC38 cells implanted in C57BL/6J mouse assessed as reduction in tumor volume at 1 mg/kg, po bid administered for 3 to 4 weeks in presence of 5 mg/kg anti-PD1 and measured twice a week (reference value: 1549.22 +/- 217.92 mm3); assay type: functional; conditions: time 3-4 weeks
[18] = tested on: MC-38; experiment: Synergistic antitumor activity against mouse MC38 cells implanted in C57BL/6J mouse assessed as tumor weight inhibition rate at 1 mg/kg, po bid measured after 4 weeks in presence of 5 mg/kg anti-PD1 and measured twice a week; assay type: functional; design: scale not given: the % may be the effect or the level left

Sequence of Mitogen-activated protein kinase kinase kinase kinase 1 (Q92918 whole entry): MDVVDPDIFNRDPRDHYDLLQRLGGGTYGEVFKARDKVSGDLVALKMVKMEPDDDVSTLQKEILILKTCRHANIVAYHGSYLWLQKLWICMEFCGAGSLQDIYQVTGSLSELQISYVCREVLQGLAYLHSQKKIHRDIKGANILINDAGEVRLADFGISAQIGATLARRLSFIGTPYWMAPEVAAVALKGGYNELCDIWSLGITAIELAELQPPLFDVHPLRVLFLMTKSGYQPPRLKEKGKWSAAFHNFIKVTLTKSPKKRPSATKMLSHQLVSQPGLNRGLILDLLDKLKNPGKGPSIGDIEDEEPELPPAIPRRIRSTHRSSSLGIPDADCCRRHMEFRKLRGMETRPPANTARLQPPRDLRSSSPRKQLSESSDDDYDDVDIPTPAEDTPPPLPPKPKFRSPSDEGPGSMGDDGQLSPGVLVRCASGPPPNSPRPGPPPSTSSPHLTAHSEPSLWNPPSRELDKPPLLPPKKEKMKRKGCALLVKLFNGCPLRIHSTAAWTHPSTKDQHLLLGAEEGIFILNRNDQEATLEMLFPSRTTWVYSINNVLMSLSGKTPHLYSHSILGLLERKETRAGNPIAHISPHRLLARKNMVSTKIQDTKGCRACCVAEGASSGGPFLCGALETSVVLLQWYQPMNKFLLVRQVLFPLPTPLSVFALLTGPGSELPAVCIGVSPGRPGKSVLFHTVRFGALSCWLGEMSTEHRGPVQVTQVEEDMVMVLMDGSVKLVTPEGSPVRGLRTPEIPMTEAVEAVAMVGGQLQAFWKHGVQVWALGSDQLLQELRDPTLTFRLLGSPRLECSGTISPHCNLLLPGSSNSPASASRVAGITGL
Sequence of Protein cereblon/Mitogen-activated protein kinase kinase kinase kinase 1 (Q92918 whole entry): as above
Sequence of Protein cereblon/Mitogen-activated protein kinase kinase kinase kinase 1 (Q96SW2 whole entry): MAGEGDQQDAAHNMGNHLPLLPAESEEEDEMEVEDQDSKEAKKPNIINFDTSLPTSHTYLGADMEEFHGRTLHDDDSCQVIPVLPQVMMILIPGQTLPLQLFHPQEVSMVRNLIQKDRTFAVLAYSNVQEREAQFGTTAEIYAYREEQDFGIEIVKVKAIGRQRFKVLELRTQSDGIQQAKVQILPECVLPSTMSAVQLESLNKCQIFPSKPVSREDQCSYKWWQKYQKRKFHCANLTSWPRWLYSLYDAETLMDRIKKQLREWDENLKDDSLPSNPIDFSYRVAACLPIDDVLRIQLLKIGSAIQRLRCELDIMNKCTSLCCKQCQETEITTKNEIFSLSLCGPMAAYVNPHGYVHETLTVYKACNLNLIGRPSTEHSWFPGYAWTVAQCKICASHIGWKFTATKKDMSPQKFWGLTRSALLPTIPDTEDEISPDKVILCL

| SMILES | DC50 [1] [µM] | DC50 [2] [µM] | Activity [3] [g] | Activity [4] [%] | Activity [5] [g] | Activity [6] [mm3] | Activity [7] [%] | Activity [8] [mm3] | Activity [9] [g] | Activity [10] [g] | inhibition in vivo at 10 mg/kg [11] [%] | inhibition in vivo at 1 mg/kg [12] [%] | inhibition in vivo at 10 mg/kg [13] [%] | Activity [14] [mm3] | Activity [15] [%] | inhibition in vivo at 1 mg/kg [16] [%] | Activity [17] [mm3] | Activity [18] [%] |
| --- | --- | --- | --- | --- | --- | --- | --- | --- | --- | --- | --- | --- | --- | --- | --- | --- | --- | --- |
| CN1CCC(n2cc(-c3c[nH]c4ncc(-c5ccc(N6CCC(CC7CCN(C(=O)c8ccc(Cl)c(N9CCC(=O)NC9=O)c8)CC7)CC6)nc5)nc34)cn2)CC1 | 0.0018 | 0.0214 | – | – | – | – | – | – | – | – | – | – | – | – | – | – | – | – |
| CCC(CC)n1cc(Oc2nc(-c3cc(C)c(C(=O)NCCN4CC[C@@H](F)C4)c(C)c3)cnc2N)cn1 | – | – | 2.04 | 68.3 | 0.48 | 1896.55 | -13.75 | 423.84 | 2.27 | 0.57 | -22.4 | 76.3 | 72.6 | 1349.36 | -26.45 | 12.9 | 367.21 | 73.27 |
